{"source": "patent US11559637B2", "about": "“Inhalers and related methods” (Norton (Waterford) Limited, priority 2017, dated 2023)", "origin": "cited, not measured here"}
{"smiles": "FCC(F)(F)F", "note": "[HFA134a, 1,1,1,2-tetrafluoroethane]", "values": [{"measurement": "surface tension", "setting": "as liquid at 25° C.", "result": "about 8 mN/m"}, {"measurement": "vapor pressure", "setting": "at 20° C.", "result": 572, "unit": "kpa"}]}
